Data from patent US12258338B2, “Modulators of the integrated stress response pathway” (EVOTEC INTERNATIONAL GMBH, priority 2019, dated 2025).
Converted amounts (≈) assume the structure as drawn. Where two headings read alike, the source gives them in different places.

What was measured:
[1] = biological target: T1, human ERG potassium channel (hERG) (Homo sapiens, UniProt Q12809); test: hERG channel tail current recording using in vitro Rapid ICE (automated patch-clamp, QPatch HTX); format: cell-based; settings: Table 26
T1 construct: expressed in transfected cells; host or cells: HEK293, stably transfected, tetracycline-inducible promoter
T1 sequence (Q12809 whole entry): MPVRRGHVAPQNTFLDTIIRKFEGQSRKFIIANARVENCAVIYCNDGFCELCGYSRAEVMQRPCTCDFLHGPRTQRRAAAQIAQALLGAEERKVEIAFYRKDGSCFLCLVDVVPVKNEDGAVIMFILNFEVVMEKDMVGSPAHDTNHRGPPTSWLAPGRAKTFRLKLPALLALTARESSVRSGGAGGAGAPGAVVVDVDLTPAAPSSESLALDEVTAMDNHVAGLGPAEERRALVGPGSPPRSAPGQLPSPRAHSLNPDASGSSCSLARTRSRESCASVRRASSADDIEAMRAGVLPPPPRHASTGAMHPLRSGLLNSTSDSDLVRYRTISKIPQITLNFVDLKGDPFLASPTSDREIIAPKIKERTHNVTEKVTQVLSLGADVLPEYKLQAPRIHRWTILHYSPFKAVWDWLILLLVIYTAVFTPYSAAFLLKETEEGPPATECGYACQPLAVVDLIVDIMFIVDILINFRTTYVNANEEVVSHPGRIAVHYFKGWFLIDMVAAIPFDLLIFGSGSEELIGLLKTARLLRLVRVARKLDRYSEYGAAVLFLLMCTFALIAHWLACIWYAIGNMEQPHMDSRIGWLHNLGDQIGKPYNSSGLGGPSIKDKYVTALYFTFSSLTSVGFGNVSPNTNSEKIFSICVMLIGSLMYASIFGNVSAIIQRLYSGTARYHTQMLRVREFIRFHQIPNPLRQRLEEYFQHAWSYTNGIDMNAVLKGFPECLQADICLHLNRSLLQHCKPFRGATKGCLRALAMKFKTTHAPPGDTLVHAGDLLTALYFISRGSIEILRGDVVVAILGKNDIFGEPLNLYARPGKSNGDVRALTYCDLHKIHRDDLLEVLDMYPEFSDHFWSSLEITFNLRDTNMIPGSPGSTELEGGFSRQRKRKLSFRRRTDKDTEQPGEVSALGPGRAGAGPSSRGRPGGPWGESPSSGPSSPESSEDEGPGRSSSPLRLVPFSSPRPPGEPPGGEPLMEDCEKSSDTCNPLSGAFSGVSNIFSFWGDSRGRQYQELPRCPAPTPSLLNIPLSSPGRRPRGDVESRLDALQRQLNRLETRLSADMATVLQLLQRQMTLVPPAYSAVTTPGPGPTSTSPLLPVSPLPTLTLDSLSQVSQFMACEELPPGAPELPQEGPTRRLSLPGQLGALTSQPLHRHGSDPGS
In short: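 Automated patch clamp on tetracycline-induced HEK293 hERG cells; pulse −80 to −50 mV 200 ms, +20 mV 4.8 s, −50 mV 5 s tail, extracellular pH 7.4. Compound at 0.3, 3, 30 μM (0.3% DMSO), 5 min exposure; tail current versus vehicle gives % inhibition and estimated IC50.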

[2] = tested on: ATF4; test: HEK-ATF4 High Content Imaging assay (prevention of Tunicamycin induced ISR; ATF4 signal ratio between nucleus and cytoplasm); format: cell-based; settings: Homo sapiens; Wild-type HEK293 cells, Tunicamycin induced ISR, 6 h; read-out: IIEK-ATF4 Activity
In short: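 Wild-type HEK293 cells in 0.3% FBS medium were co-treated with compounds and Tunicamycin (3.3 μM in prediluted medium, 11-fold over final) for 6 h at 37 °C. Fixed cells were immunostained for ATF4 with Hoechst nuclei; imaging gave nuclear/cytoplasmic ATF4 ratio, with nuclei counts as toxicity control.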

[3] = Thermodynamic (Equilibrium) solubility in selected buffer; format: physicochemical; settings: Table 25; for solubility: aqueous buffer, thermodynamic from solid
Protocol: Protocol—Thermodynamic (Equilibrium) Solubility in Selected Buffer
Example compounds were tested in the Thermodynamic (Equilibrium) solubility in selected buffer assay. The test compound, in powder form, was weighted into a 4 mL glass vial and a calculated volume of selected medium was added to reach the target concentration of the solubility test (1 mg/mL). The solution was then stirred overnight at r.t. protected from the light. The solution was filtered through a 0.45 μm PTFE membrane at ambient temperature. An aliquot of the resulting filtrate was quantified using UPLC-UV method described below against a reference solution of the test compound, 0.8 mg/mL in DMSO. Media compositions: Phosphate buffer 50 mM (pH=2.0) […] of NaH2PO4, H2O in 200 mL of ultrapurified water adjusted at pH 2 with phosphoric acid 85%; Acetate buffer 50 mM (pH=5.5) 820 mg of anhydrous sodium acetate in 200 mL of ultrapurified water adjusted at pH 5.5 with acetic acid 99.8%; Phosphate buffer 50 mM (pH=7.4) 40.5 mL of Na2HPO4 0.1 M solution+9.5 mL of NaH2PO4 0.1 M solution. Analytical conditions: UPLC-UV-MS analyses were performed with a Waters Acquity UPLC HClass-PDA-QDa system using a reverse phase Acquity BEH C18 column (2.1 mm×50 mm, 1.7 μm; temperature: 40° C.) and a gradient of 10-95% B (A=0.1% formic acid in H2O; B=0.05% formic acid in ACN) over 1.8 min then 100% B for 0.8 min, with an injection volume of 0.4 μL at flow rate of 0.65 mL/min. UV chromatograms were recorded at 220 nm, 254 nm and 290 nm using a photo diode array detector. Mass spectra were recorded in the 150 to 900 M/Z range at a sampling rate of 10 scans per sec using a QDa detector. Data were integrated using Empower®3 software. Data Analysis: Equilibrium solubility of the test compound in the selected medium was calculated through the ratio of the surface area of the UV chromatographic peak of the compound in the filtrate to the surface of the UV chromatographic peak of the compound in the reference solution.

[4] = acetate buffer 50 mM, pH 5.5, read-out: Solubility (μg/mL) pH 5.5
[5] = phosphate buffer 50 mM, pH 2.0, read-out: Solubility (μg/mL) pH 2.0
[6] = phosphate buffer 50 mM, pH 7.4, read-out: Solubility (μg/mL) pH 7.4

| Compound | IC50 [2] [nM] | solubility [3, 4] [µg/mL] | solubility [3, 5] [µg/mL] | solubility [3, 6] [µg/mL] | Solubility (μg/mL) pH 2.0 ([3]; pH 2.0) | IC50 [1] [nM] |
| --- | --- | --- | --- | --- | --- | --- |
| O=C(COc1ccc(Cl)c(Cl)c1)N[C@H]1CC[C@H](c2nnc(OCCOC(F)(F)F)o2)NC1 [Example 85, 2-(3,4-dichlorophenoxy)-N-[(3S,6R)-6-{5-[2-(trifluoromethoxy)ethoxy]-1,3,4-oxadiazol-2-yl}piperidin-3-yl]acetamide] | 1 to 500 | 9 (≈ 18 µM) | 918 (≈ 1840 µM) | 6 (≈ 12 µM) | – | 1000 to 5000 |
| O=C(COc1ccc(C(F)(F)F)cc1)N[C@H]1CC[C@H](c2nnc(OCCOC(F)(F)F)o2)NC1 [Example 112, N-[(3S,6R)-6-{5-[2-(trifluoromethoxy)ethoxy]-1,3,4-oxadiazol-2-yl}piperidin-3-yl]-2-[4-(trifluoromethyl)phenoxy]acetamide] | 1 to 500 | 97 (≈ 195 µM) | 812 (≈ 1630 µM) | 67 (≈ 134 µM) | – | > 5000 |
| Cc1ccc(OCC(=O)N[C@H]2CC[C@H](c3nnc(OCCOC(F)(F)F)o3)NC2)cc1C [Example 13, 2-(3,4-dimethylphenoxy)-N-[(3S,6R)-6-{5-[2-(trifluoromethoxy)ethoxy]-1,3,4-oxadiazol-2-yl}piperidin-3-yl]acetamide] | 1 to 500 | 318 (≈ 694 µM) | 661 (≈ 1440 µM) | 240 (≈ 524 µM) | – | > 5000 |
| O=C(COc1ccc(C(F)(F)F)nc1)N[C@H]1CC[C@H](c2nnc(OCCOC(F)(F)F)o2)NC1 [Example 14, N-[(3S,6R)-6-{5-[2-(trifluoromethoxy)ethoxy]-1,3,4-oxadiazol-2-yl}piperidin-3-yl]-2-{[6-(trifluoromethyl)pyridin-3-yl]oxy}acetamide] | 500 to 2000 | 814 (≈ 1630 µM) | 616 (≈ 1230 µM) | 606 (≈ 1210 µM) | – | > 5000 |
| Cc1cc(OCC(=O)N[C@H]2CC[C@H](c3nnc(OCCOC(F)(F)F)o3)NC2)ccc1Cl [Example 12, 2-(4-chloro-3-methylphenoxy)-N-[(3S,6R)-6-{5-[2-(trifluoromethoxy)ethoxy]-1,3,4-oxadiazol-2-yl}piperidin-3-yl]acetamide] | 1 to 500 | 113 (≈ 236 µM) | 651 (≈ 1360 µM) | 105 (≈ 219 µM) | – | > 5000 |
| O=C(COc1ccc(Cl)c(F)c1)N[C@H]1CC[C@H](c2noc([C@H]3C[C@@H](OC(F)(F)F)C3)n2)NC1 [Example 98, 2-(4-chloro-3-fluorophenoxy)-N-[(3S,6R)-6-{5-[(1s,3s)-3-(trifluoromethoxy)cyclobutyl]-1,2,4-oxadiazol-3-yl}piperidin-3-yl]acetamide] | 1 to 500 | 61 (≈ 124 µM) | – | 17 (≈ 34.5 µM) | quant.^# | 1000 to 5000 |

Further lines, with some results ahead:

| IC50 [2] [nM] | solubility [3, 4] [µg/mL] | solubility [3, 5] [µg/mL] | solubility [3, 6] [µg/mL] | Solubility (μg/mL) pH 2.0 ([3]; pH 2.0) | Compound | IC50 [1] [nM] |
| --- | --- | --- | --- | --- | --- | --- |
| 500 to 2000 | 294 (≈ 615 µM) | – | 173 (≈ 362 µM) | quant.^# | O=C(COc1ccc(Cl)c(F)c1)N[C@H]1CC[C@H](c2nnc(N3CC(C(F)(F)F)C3)o2)NC1 [Example 90, 2-(4-chloro-3-fluorophenoxy)-N-[(3S,6R)-6-{5-[3-(trifluoromethyl)azetidin-1-yl]-1,3,4-oxadiazol-2-yl}piperidin-3-yl]acetamide] | > 5000 |
| 1 to 500 | 93 (≈ 195 µM) | 717 (≈ 1500 µM) | 62 (≈ 130 µM) | – | CC(F)(F)CCCOc1nnc([C@H]2CC[C@H](NC(=O)COc3ccc(Cl)c(F)c3)CN2)o1 [Example 84, 2-(4-chloro-3-fluorophenoxy)-N-[(3S,6R)-6-{5-[(4,4-difluoropentyl)oxy]-1,3,4-oxadiazol-2-yl}piperidin-3-yl]acetamide] | 1000 to 5000 |
| 1 to 500 | 378 (≈ 811 µM) | 970 (≈ 2080 µM) | 230 (≈ 494 µM) | – | O=C(COc1ccc(Cl)c(F)c1)N[C@H]1CC[C@H](c2nnc(N3CC(OC4CC4)C3)o2)NC1 [Example 95, 2-(4-chloro-3-fluorophenoxy)-N-[(3S,6R)-6-[5-(3-cyclopropoxyazetidin-1-yl)-1,3,4-oxadiazol-2-yl]piperidin-3-yl]acetamide] | 1000 to 5000 |
